Drawing on the METLIN SMRT retention time set (Domingo-Almenara et al. 2019), this text covers RP-LC retention time for 80 compounds.

The nature of this data set: gradient 5% acetonitrile 3 min, to 50% in 2 min, to 85% in 15 min, held 3 min, 100 µL/min. Conditions: column: Zorbax Extend-C18 2.1 x 50 mm; eluents: water / acetonitrile, 0.1% formic acid. The method, boiled down:
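Over 3 months, pure standards in mixtures of ~100 molecules were run by HPLC coupled to a quadrupole time-of-flight mass spectrometer in positive and negative ionization mode. The column was a Zorbax Extend-C18 (2.1 × 50 mm, 1.8 μm) at 100 μL/min, eluted with water and acetonitrile each holding 0.1% formic acid, with 40 μL dead and 900 μL dwell volumes. Retention time was determined from adduct peaks chosen by software and checked manually.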
`CSc1cccc(NC(=O)N2CCCC2c2nc(-c3ccc(F)cc3)no2)c1` (stereo not given) gave an RP-LC retention time of 1040 s.
For the compound `CCCN(C)C[C@@H]1CC(F)(F)CN1C1CCN(S(=O)(=O)c2ccccc2F)CC1`, the RP-LC retention time came to 712 s.
`COc1ccc(-c2nc(CNC(=O)c3ccc(-n4cccn4)nn3)cs2)cc1` returned an RP-LC retention time of 855 s.
For `COCCOc1ccc2c(n1)CCN(C(=O)NC1CCCC1)C2` the value was 724 s; for `Cc1ccccc1-n1c(=O)c2sccc2n(Cc2nc(-c3ccc(OC(C)C)cc3)no2)c1=O`, 1120 s.
For `CCOC(=O)c1c(NCc2ccc(C)cc2)c2ccc(Cl)cc2[nH]c1=O` the value was 922 s.
`Cc1ccc(F)cc1S(=O)(=O)N1CCn2c(nn(CC3CC3)c2=O)C1`: the RP-LC retention time was 797 s.
For `Cc1ccc2cc(CCC(=O)NCCN3CCN(C)CC3)c(=O)[nH]c2c1` the value was 559 s; for `COc1ccc(-n2c(=O)c(C(=O)Nc3ccc(F)cc3Cl)c(O)c3cccnc32)cc1`, 1320 s.
`CC(C)Cn1cc(CCNS(=O)(=O)c2ccc(Cl)c(Cl)c2)c2cccnc21` registered an RP-LC retention time of 1060 s.
`O=C1CC(c2noc(-c3cccc(OC(F)(F)F)c3)n2)CN1c1ccc(Cl)cc1` (stereo not given) showed an RP-LC retention time of 1210 s.
Then `COc1ccc(CNC(=O)N2CC=C(c3cn(C(C)C)c4ncccc34)CC2)cc1`, with 678 s.
For `Cc1ccc(Cn2cc(-c3ccncc3)cc2C(=O)NCc2cccs2)cc1`, the RP-LC retention time stood at 734 s.
As to `O=C(CSc1nnc(-c2cccc(Br)c2)o1)c1ccc([N+](=O)[O-])cc1`, the RP-LC retention time turned out to be 1020 s.
Then `Cn1nccc1C(=O)NCc1ccc(-c2nc(-c3cccs3)no2)s1`, with 858 s; and `CCOc1ccc(-n2c(=O)c3sccc3n(Cc3nc(-c4ccccc4C)no3)c2=O)cc1`, with 1070 s.
For the compound `CCCCNC(=O)C(C)Sc1nc2nc(C)cc(C)n2n1` (stereo not given), the RP-LC retention time worked out at 679 s.
Take `COc1ccc(NC(=O)c2ccc(N3C(=O)CCC3=O)cc2)c([N+](=O)[O-])c1`: the RP-LC retention time was 716 s.
Regarding `CS(=O)(=O)N1CCCN(C(=O)c2ccc(F)cc2)CC1`, the RP-LC retention time stood at 670 s.
The compound `COc1ccc2[nH]cc(CCNC(=O)c3cc4n(n3)CCCN(Cc3ccc(F)cc3)C4=O)c2c1` returned an RP-LC retention time of 852 s.
In turn, `CC(C)(C)NC(=O)N1CCC(CNC(=O)C(=O)Nc2ccccc2Cl)CC1` came in with an RP-LC retention time of 836 s.
`Cc1cccc(Cn2nc3n(c2=O)CCCCC3)c1`: the RP-LC retention time stood at 763 s.
`COc1ccccc1N1CCN(C[C@@H](C(=O)NC(C)(C)C)c2ccccc2)CC1` displayed an RP-LC retention time of 812 s.
For `CC(=O)NCC(=O)N1[C@@H]2CC[C@H]1c1ccc(Nc3ncc(C(F)(F)F)c(NC4CCC4)n3)cc12` the value was 716 s; for `Cc1cccc2nnc(N3CCN(C(=O)c4ccc(C(F)(F)F)s4)CC3)n12`, 751 s.
In turn, `Cc1cc(N2CCN(c3ccccn3)CC2)n2nc(-c3ccc(Cl)cc3)c(C)c2n1` yielded an RP-LC retention time of 649 s.
As to `Cc1cc(C)cc(OCc2nc(CCN(C)C(=O)c3ccco3)no2)c1`, the RP-LC retention time amounted to 873 s.
Then `Cc1ccc(CNC(=O)c2cnn3c(-c4ccc(Cl)cc4)ccnc23)o1`, with 1050 s; and `O=C(NCCC1=CCCCC1)c1nc(-c2ccnc(N3CCCC3)c2)no1`, with 747 s; and `CCOc1ccc(-c2csc3c(=O)n(CC(C)C)cnc23)cc1OCC`, with 1100 s.
In the case of `CCCCN1CCN(S(=O)(=O)c2cc(-c3nnc(C4CC4)o3)co2)CC1`, the RP-LC retention time stood at 633 s.
As to `CCc1cc(=O)n(CC(=O)N2CCCc3ccccc32)c(N2CCOCC2)n1`, the RP-LC retention time is 781 s.
Compound `Cc1nccn1C1CN(S(=O)(=O)c2cccc(F)c2)C1` came in with an RP-LC retention time of 604 s.
Consider `Cc1c(-c2noc(-c3ccc(F)cc3)n2)nnn1-c1ccccc1`, for which the RP-LC retention time worked out at 994 s.
With `COc1ccc(N2CCN(c3ncccc3-c3nc(-c4ccc(Cl)cc4)no3)CC2)cc1`, the RP-LC retention time came to 1230 s.
Then `O=C(Nc1ccc2c(c1)OCCO2)NC1CCN(c2ccccc2)C1=O` (stereo not given), with 720 s; and `Cc1noc(C)c1CN1CCC(NC(=O)Cc2ccccc2Cl)C1` (stereo not given), with 613 s; and `O=C(NCc1nc(-c2ccc(N3CCCCC3)cc2)no1)c1ccco1`, with 777 s.
Turning to `COc1ccc(C(=O)NCCc2c[nH]c3ccc(Cl)cc23)cc1OC`, the RP-LC retention time is 817 s.
The compound `CNC(=O)NCCc1c[nH]c2ncccc12` showed an RP-LC retention time of 512 s.
As for `COc1ccc(NC(=O)c2cnc3c(c2)c(=O)n(C)c(=O)n3C)cc1`, the RP-LC retention time was 732 s.
For `Cc1nc(N2CCCC2)c2c(C(=O)Nc3cccc(Cl)c3)c(C)oc2n1` the value was 852 s; for `Cc1ccccc1Cn1c(CN2CCC(C(=O)NCc3cccs3)CC2)cc2ccccc21`, 790 s.
Then `O=C(Cc1c(F)cccc1Cl)N1CC(c2nc(-c3ccccc3)no2)C1`, with 900 s; and `Cc1nc([C@@H]2CN(C(=O)CCc3c(C)n[nH]c3C)C[C@H]2C(N)=O)n[nH]1`, with 523 s; and `COc1ccccc1NC(=O)CN1C(=O)NC2(CCCCC2)C1=O`, with 760 s.
`COC(=O)C(C)NC(=O)N1CCCN(C2=NS(=O)(=O)C(c3ccccc3)=C2C)CC1` (stereo not given) showed an RP-LC retention time of 715 s.
In the case of `Cc1ccc(S(=O)(=O)N2CCC(c3nc(C(=O)N4CCCC4)c(C)o3)CC2)cc1`, the RP-LC retention time was found to be 733 s.
For the compound `CNC(=O)C1CCCN(c2nc3ncn(CC(=O)Nc4c(C)cccc4C)c(=O)c3s2)C1` (stereo not given), the RP-LC retention time stood at 661 s.
Take `CCOC(=O)c1c[nH]c2ccc(NC(C)=O)cc2c1=O`: the RP-LC retention time was found to be 557 s.
In turn, `O=C(Cc1ccccc1Cl)N1CCN(c2cc(-c3cccs3)[nH]n2)CC1` displayed an RP-LC retention time of 819 s.
`CCn1cnc2ccc(-c3noc(-c4ccc(C)cc4)n3)cc21` displayed an RP-LC retention time of 832 s.
For `CCc1nc(-n2cccc2)sc1C(=O)Nc1cc(C)ccc1F` the value was 1180 s; for `CCN1c2cc(Cl)ccc2C(=O)NC12CCN(C(=O)Nc1ccccc1OC)CC2`, 858 s.
As for `CC(C)(C)OC(=O)NCc1nnc(C(F)(F)F)n1-c1ccccc1`, the RP-LC retention time was 773 s.
`O=C(Nc1ccc(S(=O)(=O)N2CCOCC2)cc1)c1ccc(Br)s1` registered an RP-LC retention time of 858 s.
Then `CCn1cc(S(=O)(=O)N2CCCCC2c2nc(-c3cccnc3)n[nH]2)cn1` (stereo not given), with 615 s; and `O=C1CCCN1Cc1noc(-c2cccc(Cl)c2)n1`, with 814 s.
`COc1ccc(-c2nnc(COc3ccc(NC(=O)c4ccsc4)cc3)o2)cc1` yielded an RP-LC retention time of 892 s.
On to `Cc1ccc(OCC(=O)N(Cc2ccc(N(C)C)cc2)Cc2ccco2)cc1`, for which the RP-LC retention time was determined as 795 s.
Consider `Cc1nc2cccnc2n1CCN1CCN(C(=O)Nc2ccc(Br)cc2)CC1`, for which the RP-LC retention time is 619 s.
Regarding `COc1ccc(COC(=O)C2=CN(Cc3ccc(OC)cc3)S(=O)(=O)N=C2C)cc1`, the RP-LC retention time was 923 s.
Compound `Cc1cc(-c2c(C)sc(C)c2S(=O)(=O)Nc2ccc(C(C)C)cc2)n[nH]1` displayed an RP-LC retention time of 1200 s.
Consider `O=c1c2nc(-c3ccc(F)cc3F)cn2ccn1-c1ccc(F)cc1`, for which the RP-LC retention time amounted to 862 s.
In turn, `CCOC(=O)c1ccc(N2C(=O)CC(NCCCN3CCN(CC)CC3)C2=O)cc1` (stereo not given) had an RP-LC retention time of 636 s.
As for `Cc1ccnc(N2CCC(C(=O)NCCCN3CCCC(C)C3)CC2)n1` (stereo not given), the RP-LC retention time is 568 s.
The compound `CCOc1ccc(CNC(=O)CN2CC=C(c3cnn(-c4ccccc4)c3)CC2)cc1OCC` displayed an RP-LC retention time of 746 s.
In turn, `CCOCCOC(=O)C1=C(C)NC2=C(C(=O)CC(C)(C)C2)C1c1ccccc1OC` (stereo not given) registered an RP-LC retention time of 839 s.
`CS(=O)(=O)N1CCC(C(=O)NCCc2ccccc2)Oc2ccc(Cl)cc21` (stereo not given) returned an RP-LC retention time of 919 s.
For the compound `CCCCNC(=O)CN1C(=O)CC(c2cccs2)=Nc2ccccc21`, the RP-LC retention time amounted to 835 s.
`Cc1cccc(CNC(=O)c2cn3cccc(C)c3n2)c1` gave an RP-LC retention time of 675 s.
Take `CC(c1ccccc1)N1CC(=O)N(c2ccc(Cl)cc2)[C@@H]2CS(=O)(=O)C[C@@H]21` (stereo not given in full): the RP-LC retention time came out at 853 s.
In the case of `Cc1nn2c(CNC(=O)c3ccc(Br)cc3)c(C)nc2s1`, the RP-LC retention time worked out at 656 s.
Consider `CN(C)S(=O)(=O)c1ccc(-c2nnc(C(=O)NCc3ccncc3)o2)cc1`, for which the RP-LC retention time is 604 s.
For `CC(C(=O)NCCc1c[nH]c2ccccc12)C1CCN(S(=O)(=O)c2ccc(Cl)s2)CC1` (stereo not given) the value was 988 s; for `Cc1cccc(N2CCN(c3ncc(S(=O)(=O)c4ccc(C)c(C)c4)c(N)n3)CC2)c1`, 1190 s; for `CS(=O)(=O)N1CC(c2noc(-c3cccnc3)n2)C2(CCOCC2)C1` (stereo not given), 660 s.
`O=c1n(Cc2ccccc2)nc2c(S(=O)(=O)N3CCc4ccccc4C3)cccn12` showed an RP-LC retention time of 942 s.
Take `Cn1cc(C(=O)O)c(S(=O)(=O)N2CCOCC2)n1`: the RP-LC retention time worked out at 576 s.
Then `CCCCC(=O)Nc1ccc(N2CCOCC2)cc1C(=O)O`, with 578 s.
